# Experimental data reported in PubChem BioAssay (NCI).
# Where “and” joins values, the source holds several entries; their conditions need not be identical. Equal entries are not always repeated.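 96-well plates; 48 h exposure; 5 concentrations. Endpoints by linear interpolation between flanking doses. Not reached: highest tested concentration assigned. Abbreviation: GI50, concentration required for 50% inhibition of growth. TGI marks complete inhibition of growth.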
# Experiments:
# Test in all cases: growth of human tumour cells (NCI), 48 h
# SR leukemia = tested on: SR leukemia
# NCI-H226 lung = tested on: NCI-H226 lung
# MALME-3M melanoma = tested on: MALME-3M melanoma
# PC-3 prostate = tested on: PC-3 prostate
# SF-268 CNS = tested on: SF-268 CNS
# DU-145 prostate = tested on: DU-145 prostate
# NCI-H522 lung = tested on: NCI-H522 lung
# MOLT-4 leukemia = tested on: MOLT-4 leukemia
# A549 NSCLC = tested on: A549 NSCLC
# TK-10 renal = tested on: TK-10 renal
Compound,GI50 (SR leukemia),TGI (SR leukemia),GI50 (NCI-H226 lung),TGI (NCI-H226 lung),GI50 (MALME-3M melanoma),TGI (MALME-3M melanoma),GI50 (PC-3 prostate),TGI (PC-3 prostate),GI50 (SF-268 CNS),TGI (SF-268 CNS),GI50 (DU-145 prostate),TGI (DU-145 prostate),GI50 (NCI-H522 lung),TGI (NCI-H522 lung),GI50 (MOLT-4 leukemia),TGI (MOLT-4 leukemia),GI50 (A549 NSCLC),TGI (A549 NSCLC),GI50 (TK-10 renal),TGI (TK-10 renal)
C=C(C)C1/C=C(/C(C)C)CC[C@]2(C)O[C@@H]2CC[C@H](C)CC1=O (some centres undefined),19200 nM,58.5 µM,> 100 µM,> 100 µM,36.1 µM,> 100 µM,32.4 µM,> 100 µM,> 100 µM,> 100 µM,49.6 µM,> 100 µM,> 100000 nM,> 100 µM,> 100 µM,> 100 µM,48.5 µM,> 100 µM,66.6 µM,> 100 µM
C#Cc1ccc(NC(=O)c2ccc(/C=C/C(=O)c3nccn3C)cc2)cc1,115 nM,3.33 µM,0.605 µM,2 µM,0.486 µM,1.19 µM,0.476 µM,1.53 µM,0.76 µM,4.5 µM,0.597 µM,1.57 µM,518 nM,1.37 µM,0.582 µM,1.54 µM,0.702 µM,5.02 µM,0.905 µM,4.66 µM
C[C@@H]1CC[C@@]2(OC1)O[C@H]1C[C@H]3[C@@H]4CC=C5C[C@@H](O[C@@H]6O[C@H](CO)[C@@H](O[C@@H]7O[C@@H](CO)[C@H](O)[C@H]7O)[C@H](O)[C@H]6O[C@@H]6O[C@@H](C)[C@H](O)[C@@H](O)[C@H]6O)CC[C@]5(C)[C@H]4CC[C@]3(C)[C@H]1[C@@H]2C,565 nM,2.39 µM,1.33 µM,3.07 µM,0.681 µM,2 µM,1.45 µM,2.81 µM,1.21 µM,2.47 µM,1.17 µM,2.4 µM,1670 nM,3.23 µM,–,2.26 µM,–,2.04 µM,–,2.19 µM
COc1ccc(/C=C(\C#N)c2cc3ccccc3n2C)cc1,176 nM,–,1.87 µM,> 70.8 µM,0.475 µM,> 100 µM,0.448 µM,> 100 µM,2.52 µM,> 100 µM,0.502 µM,> 100 µM,407 nM,5.03 µM,0.448 µM,> 40.3 µM,0.514 µM,> 100 µM,4.51 µM,> 100 µM
O=C(/C=C/c1ccco1)Nc1ncc(Cc2ccc(F)cc2)s1,35.6 nM,> 68 µM,–,> 100 µM,0.249 µM,> 100 µM,0.0571 µM,> 100 µM,0.201 µM,> 100 µM,0.0901 µM,> 100 µM,25.5 nM,0.191 µM,0.0825 µM,> 100 µM,0.118 µM,> 100 µM,10.2 µM,> 100 µM
O=C1/C(=C/c2cccs2)CCC/C1=C\c1cccs1,> 94900 nM,> 100 µM,49.1 µM,> 100 µM,> 48.8 µM,> 100 µM,37.7 µM,> 100 µM,33.5 µM,> 100 µM,46.6 µM,> 100 µM,40100 nM,> 100 µM,> 100 µM,> 100 µM,68.3 µM,> 100 µM,25.9 µM,> 71.8 µM
CC[C@H](C)[C@H](NC(=O)C12C3C4C1C1C2C3C41NC(C)=O)C(=O)N(C)[C@H](C[C@@H](OC(C)=O)c1nc(C(=O)N[C@@H](Cc2ccccc2)C[C@H](C)C(=O)OC)cs1)C(C)C (some centres undefined),33.1 nM,> 14.3 µM,> 9.71 µM,> 14.3 µM,–,> 14.3 µM,0.582 µM,> 14.3 µM,0.677 µM,> 14.3 µM,0.469 µM,> 9.88 µM,63.7 nM,0.513 µM,0.588 µM,> 14.3 µM,2.82 µM,> 14.3 µM,1.11 µM,> 14.3 µM
Cn1c(=O)c2[nH]c(COc3ccc(C(C)(C)C)cc3)nc2n(C)c1=O,5120 nM,55.9 µM,25.6 µM,> 100 µM,18.2 µM,58.8 µM,6.11 µM,53.3 µM,14.1 µM,> 100 µM,17.7 µM,> 100 µM,19600 nM,88 µM,3.94 µM,31.2 µM,18.9 µM,> 100 µM,23.9 µM,99.6 µM
COc1ccc(/C=C2\COc3ccc(-c4ccccc4)cc3C2=O)cc1O,2000 nM,> 100 µM,15.3 µM,32.9 µM,1.04 µM,4.31 µM,3.41 µM,> 100 µM,3.18 µM,12.7 µM,2.49 µM,9.69 µM,2400 nM,10.5 µM,2.34 µM,83.6 µM,2.96 µM,18.9 µM,2.14 µM,8.3 µM
CC/C=C\CCC/C=C1/C(=O)C=C[C@@H]1C/C=C\CCCC(=O)O,1920 nM,8.57 µM,4.35 µM,30.1 µM,8.66 µM,26.6 µM,3.64 µM,9.82 µM,5.03 µM,22.1 µM,11.3 µM,23.8 µM,2020 nM,4.78 µM,2.44 µM,8.93 µM,12.8 µM,32.7 µM,5.04 µM,17.2 µM
Cn1c(O)c(C(=O)Nc2ccc([N+](=O)[O-])cc2)c(=O)n(C)c1=S,–,> 100 µM,–,9.85 µM,–,5.03 µM,–,5.34 µM,–,10.7 µM,–,11.5 µM,–,> 100 µM,–,> 100 µM,–,32.5 µM,–,10.7 µM
COc1cc(C2C(C#N)=C(N)OC3=C2C(=O)c2ccccc2C3=O)cc(OC)c1OC (centres undefined),337 nM,> 100 µM,1.39 µM,23.7 µM,1.18 µM,13.7 µM,0.577 µM,> 100 µM,6.58 µM,60.7 µM,0.474 µM,15.9 µM,260 nM,16.8 µM,4.06 µM,24.4 µM,1.32 µM,29.6 µM,10 µM,> 100 µM
O=C(/C=C\c1ccnc2ccccc12)c1ccc([N+](=O)[O-])cc1,2280 nM,7.37 µM,6.35 µM,> 100 µM,57.2 µM,> 100 µM,8.62 µM,48.2 µM,21.6 µM,> 82.8 µM,43.1 µM,> 100 µM,15200 nM,> 100 µM,4.21 µM,> 83 µM,> 41.1 µM,> 100 µM,21.3 µM,> 100 µM
COC(=O)CCC1=C(C)c2cc3[n-]c(cc4nc(cc5[n-]c(cc1n2)c(CCC(=O)OC)c5C)C=C4C)cc3C.[Cd+2],3160 nM,8.91 µM,1.52 µM,4.73 µM,2.55 µM,7.58 µM,4.68 µM,29.3 µM,3.14 µM,14.9 µM,4.5 µM,10.4 µM,265 nM,0.754 µM,5.08 µM,> 63.6 µM,4.24 µM,22.9 µM,5.25 µM,13.6 µM
CN(Cc1cnc2nc(N)nc(N)c2n1)c1ccc(C(=O)NC(CCC(=O)O)C(=O)O)cc1 (centres undefined),50 nM,> 100 µM,0.505 µM,> 100 µM,43 µM,> 100 µM,2.56 µM,> 100 µM,0.247 µM,> 100 µM,0.204 µM,> 100 µM,721 nM,> 100 µM,0.389 µM,> 100 µM,0.0605 µM,> 100 µM,> 100 µM,> 100 µM
CC(=O)Oc1cccc2c1C(=O)c1c(OC(C)=O)cc(C)cc1C2=O,–,> 100 µM,–,> 100 µM,–,> 100 µM,–,> 100 µM,–,> 100 µM,–,> 100 µM,–,> 100 µM,–,> 100 µM,–,> 100 µM,–,> 100 µM
O=C(NNS(=O)(=O)c1cc(C(F)(F)F)cc(C(F)(F)F)c1)c1cnn(-c2ccc(Cl)cc2)c1C(F)(F)F,19400 nM,42 µM,20.7 µM,54.3 µM,16.9 µM,34.3 µM,16.4 µM,32.8 µM,21.6 µM,52.6 µM,18.6 µM,44.1 µM,18800 nM,43.1 µM,19.9 µM,52.3 µM,13.7 µM,33.2 µM,24.3 µM,54.7 µM
O=c1[nH]c(-c2ccc(C(F)(F)F)cc2)nc2c1CSCC2,> 100000 nM,> 100 µM,30.4 µM,> 100 µM,30.9 µM,> 100 µM,> 77.3 µM,> 100 µM,53.2 µM,> 100 µM,> 84.5 µM,> 100 µM,> 100000 nM,> 100 µM,> 100 µM,> 100 µM,32.9 µM,> 100 µM,23.8 µM,66.8 µM
COc1ccccc1-n1c(SCc2cc(OC)c(OC)c(OC)c2)nc2ccc(Cl)cc2c1=O,538 nM,> 100 µM,13.3 µM,> 100 µM,8.76 µM,> 100 µM,2.65 µM,> 100 µM,23.1 µM,> 100 µM,9.12 µM,> 100 µM,2610 nM,> 100 µM,3.05 µM,> 100 µM,2.87 µM,> 100 µM,48.6 µM,> 100 µM
COc1ccc(C(O)c2cc3c(N)c(C(=O)Nc4cccc(Br)c4)sc3nc2C)cc1 (centres undefined),97.9 nM,> 32.7 µM,0.18 µM,> 47 µM,0.799 µM,> 52.7 µM,0.204 µM,> 100 µM,0.29 µM,> 32.6 µM,0.128 µM,11.9 µM,81.4 nM,1.85 µM,0.14 µM,> 52.8 µM,0.14 µM,> 100 µM,9.26 µM,> 95.1 µM
Oc1ccccc1-n1c(-c2ccccc2)ccc1-c1ccccc1,4200 nM,18 µM,8.69 µM,21.9 µM,2.9 µM,16.2 µM,2.95 µM,15.8 µM,10.5 µM,24.8 µM,7 µM,19.7 µM,2740 nM,12.8 µM,3.81 µM,16.8 µM,4.62 µM,19.6 µM,11.1 µM,24.1 µM
C=C1C(C)C2C(Cc3ccccc3)NC(=O)C23C(OC(C)=O)/C=C/C(C)(O)CC(C)C/C=C/C3C1O (centres undefined),–,> 59.9 µM,–,42.3 µM,–,> 94.4 µM,15.8 µM,> 100 µM,–,41.2 µM,–,> 100 µM,–,45.1 µM,–,77.2 µM,–,> 100 µM,–,> 54.5 µM
CCSC1=CC(=O)c2ccccc2C1=O,2570 nM,6.8 µM,16.8 µM,32.9 µM,1.99 µM,5.34 µM,5.84 µM,18.5 µM,4.98 µM,17.1 µM,14.4 µM,27.8 µM,821 nM,2.39 µM,0.744 µM,2.39 µM,19.9 µM,41.3 µM,2.5 µM,4.65 µM
CN(C)c1ccc(/C=C/c2ccnc3ccccc23)cc1,–,> 100 µM,3 µM,48 µM,11.2 µM,> 100 µM and 55.4 µM,3.28 µM,> 100 µM and 46.6 µM,5.58 µM,> 100 µM,5.86 µM,> 100 µM,10500 nM,> 100 µM,3.59 µM,43.6 µM,4.14 µM,> 100 µM,9.49 µM,> 100 µM and 58.4 µM
COc1ccc([C@H]2O[C@@H](CO)C[C@]2(O)c2ccc(OC)cc2)cc1,49800 nM,> 100 µM,> 100 µM,> 100 µM,> 100 µM,> 100 µM,> 100 µM,> 100 µM,> 100 µM,> 100 µM,> 100 µM,> 100 µM,> 100000 nM,> 100 µM,> 100 µM,> 100 µM,> 100 µM,> 100 µM,> 100 µM,> 100 µM
